Patent US20250129095A1, “ANNULATED 2-AMINO-3-CYANO THIOPHENES AND DERIVATIVES FOR THE TREATMENT OF CANCER” (Boehringer Ingelheim Int'l GmbH Corp., priority 2021, published 2025)

Experiments:
[1] = tested on: LOVO cells; experiment: LOVO CTG proliferation assay (120 h) (CRC, G13D); format: cell-based; settings: Homo sapiens
Procedure: LOVO cells (ATCC CCL-229) are dispensed into 384-well plates, flat and clear bottom (Greiner, PNr. 781091) at a density of 1000 cells per well in 60 μL DMEM (Sigma D6429)+10% Fetal Calf Serum (HyClone, PNr.: SH30084.03) and incubated at 37° C. in a CO2 incubator overnight. The next day, compounds (10 mM stock in DMSO) are added with the ECHO acoustic liquid handler system (Beckman Coulter), including DMSO controls. Plates are incubated for 120 h, and cell viability is measured using CellTiter-Glo luminescent cell viability reagent (Promega product code G7570). Viability (stated as percent of control) is defined as relative luminescence units RLU of each well divided by the RLU of cells in DMS0 controls. IC50 values are determined from viability measurements by non-linear regression using a four-parameter model.

[2] = molecular target: T1, KRAS (G12D)::SOS1 (Homo sapiens, UniProt P01116, G12D); experiment: KRAS::SOS1 AlphaScreen binding assay, KRAS G12D; settings: read-out: KRASG12D IC50
T1 construct: KRAS (G12D) 1-169, N-terminal 6His-tag, C-terminal avi-tag; 6His-tag (N); purchased Xtal BioStructures, Inc. (KRAS); Viva Biotech Ltd (SOS1)
T1 sequence (P01116 1-169 isoform P01116-2 G12D): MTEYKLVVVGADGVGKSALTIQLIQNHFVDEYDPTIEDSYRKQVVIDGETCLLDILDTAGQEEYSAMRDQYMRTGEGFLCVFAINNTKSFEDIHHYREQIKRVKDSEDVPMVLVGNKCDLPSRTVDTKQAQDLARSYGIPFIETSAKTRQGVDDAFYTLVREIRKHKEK
Description: This assay can be used to examine the potency with which compounds according to the invention binding to (mutated) KRAS inhibit the protein-protein interaction between SOS1 and (mutated) KRAS e.g., KRAS WT, KRAS G12C, KRAS G12D, KRAS G12V, KRAS G13D. […] Low IC50 values in this assay setting are indicative of strong inhibition of protein-protein interaction between SOS1 and KRAS:
These assays measure the inhibitory effect of compounds on KRAS mutant protein-protein interactions using the Alpha Screen technology by Perkin Elmer
The following (mutant) enzyme forms of KRAS and interacting proteins are used in these assays at the given concentrations: • KRAS (G12D) 1-169, N-terminal 6His-tag, C-terminal avi-tag (Xtal BioStructures, Inc.); final assay concentration 10 nM and SOS1 564-1049, N-terminal 229 GST-tag, TEV cleavage site (Viva Biotech Ltd); final assay concentration 5 nM; • KRAS (G12C) 1-169, N-terminal 6His-tag for purification, cleaved off, C-terminal avi-tag, biotinylated, mutations: C51S, C80L, C118S (in house); final assay concentration 7.5 nM and SOS1 564-1049, N-terminal 229 GST-tag, TEV cleavage site (Viva Biotech Ltd); final assay concentration 5 nM; • KRAS (G12V) 1-169, N-terminal 6His-tag for purification, cleaved off, C-terminal avi-tag, biotinylated, TEV cleavage site, mutation: C118S, GDP loaded (in house); final assay concentration 10 nM and SOS1 564-1049, N-terminal 229 GST-tag, TEV cleavage site (Viva Biotech Ltd); final assay concentration 10 nM; • KRAS (G13D) 1-169, N-terminal 6His-tag for purification, cleaved off, C-terminal avi-tag, biotinylated, TEV cleavage site, mutation: C118S, GDP loaded (in house); final assay concentration 10 nM and SOS1 564-1049, N-terminal 229 GST-tag, TEV cleavage site (Viva Biotech Ltd); final assay concentration 10 nM; • KRAS (WT) 1-169, N-terminal 6His-tag for purification, cleaved off, C-terminal avi-tag, biotinylated, TEV cleavage site, mutation: C118S, GDP loaded (in house); final assay concentration 10 nM and SOS1 564-1049, N-terminal 229 GST-tag, TEV cleavage site (Viva Biotech Ltd); final assay concentration 10 nM.
Test compounds dissolved in DMSO are dispensed onto assay plates (Proxiplate 384 PLUS, white, PerkinElmer; 6008289) using an Access Labcyte Workstation with the Labcyte Echo 55×. For the chosen highest assay concentration of 100 μM, 150 nL of compound solution are transferred from a 10 mM DMSO compound stock solution. A series of eleven fivefold dilutions per compound are transferred to the assay plate, compound dilutions are tested in duplicates. DMSO are added as backfill to a total volume of 150 nL.
The assays run on a fully automated robotic system in a darkened room below 100 Lux. To 150 nl of compound dilution 10 μl of a mix including KRAS mutant protein, SOS1 (final assay concentrations see above) and GDP nucleotide (Sigma G7127; final assay concentration 10 μM) in assay buffer (1×PBS, 0.1% BSA, 0.05% Tween 20) are added into columns 1-24.
After 30 minutes incubation time 5 μl of Alpha Screen bead mix in assay buffer are added into columns 1-23. Bead mix consists of AlphaLISA Glutathione Acceptor Beads (PerkinElmer, Cat No AL109) and AlphaScreen Streptavidin Donor Beads (PerkinElmer Cat No 6760002) in assay buffer at a final assay concentration of 10 μg/ml each.
Plates are kept at room temperature in a darkened incubator. After an additional 60 minutes incubation time the signal is measured in a PerkinElmer Envision HTS Multilabel Reader using the AlphaScreen specs from PerkinElmer.
Each plate contains up to 16 wells of a negative control depending on the dilution procedure (platewise or serial) (DMSO instead of test compound; with KRAS mutant::SOS1 GDP mix and bead mix; column 23) and 16wells of a positive control (DMSO instead of test compound; with KRAS mutant::SOS1 GDP mix w/o bead mix; column 24).
As internal control known inhibitors of KRAS mutant::SOS1 interaction can be measured on each compound plate. […]

[3] = molecular target: KRAS G12C Ba/F3 (Homo sapiens, UniProt P01116, G12C, cells depend on it); experiment: Ba/F3 proliferation assay, KRAS G12C; format: cell-based; settings: 72 h, AlamarBlue, read-out: KRAS G12C Ba/F3 IC50
Chain of KRAS G12C Ba/F3 (P01116 whole entry G12C, canonical isoform): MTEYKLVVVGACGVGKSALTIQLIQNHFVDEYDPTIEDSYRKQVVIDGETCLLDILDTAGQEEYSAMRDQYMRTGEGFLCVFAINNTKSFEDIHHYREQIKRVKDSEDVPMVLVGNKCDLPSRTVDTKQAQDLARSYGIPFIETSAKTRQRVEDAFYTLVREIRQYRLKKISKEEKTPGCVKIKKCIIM
Procedure: Plasmids containing KRASG12 mutants(i.e. G12D, G12C, G12V) are obtained from GeneScript. To generate KRASG12-dependent Ba/F3 models, Ba/F3 cells are transduced with retroviruses containing vectors that harbor KRASG12 isoforms. Platinum-E cells (Cell Biolabs) are used for retrovirus packaging. Retrovirus is added to Ba/F3 cells. To ensure infection, 4 μg/mL polybrene is added and cells are spinfected. […] Cells with an infection efficiency of 10% to 20% are further cultivated and puromycin selection with 1 μg/mL is initiated. As a control, parental Ba/F3 cells are used to show selection status. Selection is considered successful when parental Ba/F3 cells cultures died. To evaluate the transforming potential of KRASG12 mutations, the growth medium is no longer supplemented with IL-3. Ba/F3 cells harboring the empty vector are used as a control. Approximately ten days before conducting the experiments, puromycin is left out.
Compounds are added using an Access Labcyte Workstation with a Labcyte Echo 550 or 555 accoustic dispenser. All treatments are performed in technical duplicates. […] AlamarBlue™ (ThermoFisher), a viability stain, is added and fluorescence measured in the PerkinElmer Envision HTS Multilabel Reader. The raw data are imported into and analyzed with the Boehringer Ingelheim proprietary software MegaLab (curve fitting based on the program PRISM, GraphPad Inc.).

Structure (SMILES) | IC50 [1] [nM] | IC50 [2] [nM] | GI50 [3] [nM]
COCCOc1cc(O[C@@H](C)[C@@H]2CCCN2C)nc(-c2noc3c2CCC[C@@]32CCCc3sc(N)c(C#N)c32)n1 [II-5] | 117 | 1 | 17
C[C@H](Oc1cc(OCCO)nc(-c2noc3c2CCC[C@@]32CCCc3sc(N)c(C#N)c32)n1)[C@@H]1CCCN1C [II-6] | 781 | 1 | 11
C[C@H](Oc1cc(Oc2cnccn2)nc(-c2noc3c2CCC[C@@]32CCCc3sc(N)c(C#N)c32)n1)[C@@H]1CCCN1C [II-7] | 15 | 1 | 4
C[C@H](Oc1cc(O[C@@H]2CNC2(C)C)nc(-c2noc3c2CCC[C@@]32CCCc3sc(N)c(C#N)c32)n1)[C@@H]1CCCN1C [II-9] | 99 | 1 | 133
C[C@H](Oc1cc(N(C)C)nc(-c2noc3c2CCC[C@@]32CCCc3sc(N)c(C#N)c32)n1)[C@@H]1CCCN1C [II-10] | 4080 | 2 | 61
C[C@H](Oc1cc(NCC2COC2)nc(-c2noc3c2CCC[C@@]32CCCc3sc(N)c(C#N)c32)n1)[C@@H]1CCCN1C [II-11] | 568 | 1 | 14
C[C@H](Oc1cc(Nc2nccs2)nc(-c2noc3c2CCC[C@@]32CCCc3sc(N)c(C#N)c32)n1)[C@@H]1CCCN1C [II-12] | 1130 | 6 | 44
C[C@H](Oc1cc(Nc2ncco2)nc(-c2noc3c2CCC[C@@]32CCCc3sc(N)c(C#N)c32)n1)[C@@H]1CCCN1C [II-13] | 500 | 2 | 17
C[C@H](Oc1cc(Nc2cnccn2)nc(-c2noc3c2CCC[C@@]32CCCc3sc(N)c(C#N)c32)n1)[C@@H]1CCCN1C [II-14] | 960 | 3 | 15
C[C@H](Oc1cc(Nc2ccncn2)nc(-c2noc3c2CCC[C@@]32CCCc3sc(N)c(C#N)c32)n1)[C@@H]1CCCN1C [II-15] | 708 | 3 | 29
C[C@H](Oc1cc(Nc2ccccn2)nc(-c2noc3c2CCC[C@@]32CCCc3sc(N)c(C#N)c32)n1)[C@@H]1CCCN1C [II-16] |  | 3 | 24
C[C@H](Oc1cc(Nc2ncccn2)nc(-c2noc3c2CCC[C@@]32CCCc3sc(N)c(C#N)c32)n1)[C@@H]1CCCN1C [II-17] | 297 | 2 | 19
C[C@H](Oc1cc(Nc2cccnn2)nc(-c2noc3c2CCC[C@@]32CCCc3sc(N)c(C#N)c32)n1)[C@@H]1CCCN1C [II-18] | 1120 | 2 | 37
